# Measurements as given in article PMC8428568, “Discovery of re-purposed drugs that slow SARS-CoV-2 replication in human cells” (PLoS Pathogens, 2021).
# Structures can show the parent of a compound that is named as a salt. Where two headings read alike, the source gives them in different places.
# Experiments:
# [1] = tested on: HUH7 cells
# [2] = tested on: SARS-CoV-2-ΔOrf7a-NLuc virus; assay: microbe, parasite or virus in culture; format: cell-based
# [3] = tested on: Vero cells
# [4] = tested on: SARS-CoV-2-ΔOrf7a-NLuc virus; assay: microbe, parasite or virus in culture; format: cell-based; details: for activity at 10 µM: Severe acute respiratory syndrome coronavirus 2, Vero, 72 h, read-out: Mean relative luminescence (n=4)
# [5] = tested on: recombinant NLuc; format: biochemical
# [6] = HUH7 screen, […], relative luminescence
# [7] = Vero cells, 10 μM, 1 = DMSO-treated infected cells
# [8] = […], 1 = untreated, 0 = total inhibition
# [9] = Vero screen, […], relative luminescence
# [10] = recombinant NLuc activity relative to DMSO
# [11] = recombinant NLuc, first read column
# [12] = recombinant NLuc, fourth read column
# [13] = recombinant NLuc, third read column
SMILES,PrestoBlue relative viability ([1]; HUH7 screen),"Mean relative luminescence (n=4) [2, 6]","PrestoBlue relative viability [3, 7]",PrestoBlue relative viability ([3]; Vero screen),% activity in Vero 100PFU screen [4],"activity at 10 µM [4, 8]","Mean relative luminescence (n=4) [4, 9]","Relative Recombinant NLUC [5, 10]","Reads Counts per second (read 1) [5, 11]","Reads Counts per second (read 4) [5, 12]","Reads Counts per second (read 3) [5, 13]",other results
"CCc1cnn2c(NCc3ccc[n+]([O-])c3)cc(N3CCCC[C@H]3CCO)nc12 [Dinaciclib (SCH727965), Dinaciclib]",0.5934,0.06294,0.664,0.664,5%,3.29%,0.03292,0.9134,345056 Counts per second,346073 Counts per second,342151 Counts per second,–
CCCCc1oc2ccccc2c1C(=O)c1cc(I)c(OCCN(CC)CC)c(I)c1 [Amiodarone HCl],0.9633,0.03404,0.8378,0.8378,–,3.18%,0.03182,0.9671,364410 Counts per second,366409 Counts per second,365644 Counts per second,Reads Counts per second (read 2) ([5]; recombinant NLuc): 365102 Counts per second
COC(=O)C1=C(C)NC(C)=C(C(=O)O[C@@H]2CCCN(Cc3ccccc3)C2)[C@@H]1c1cccc([N+](=O)[O-])c1.Cl (racemic) [Benidipine HCl],0.6609,0.003821,0.8086,0.8086,1.81%,–,0.003673,0.1313,50508 Counts per second,49177 Counts per second,49185 Counts per second,"Mean relative luminescence (n=4) [4, 8]: 0.003673; Reads Counts per second (read 2) ([5]; recombinant NLuc): 49563 Counts per second"
COc1nc2ccc(Br)cc2cc1[C@@H](c1ccccc1)[C@@](O)(CCN(C)C)c1cccc2ccccc12.O=C(O)/C=C/C(=O)O [Bedaquiline fumarate],0.5224,0.1084,1.113,1.113,3.58%,–,0.01053,0.9227,351974 Counts per second,338630 Counts per second,351293 Counts per second,"Mean relative luminescence (n=4) [4, 8]: 0.01053; Reads Counts per second (read 2) ([5]; recombinant NLuc): 352561 Counts per second"
CC(C)n1c(/C=C/C(O)CC(O)CC(=O)O)c(-c2ccc(F)cc2)c2ccccc21 (stereo not shown) [Fluvastatin Sodium],1.3017,0.05448,0.5553,0.5553,6%,5.01%,0.05005,0.8994,344916 Counts per second,335899 Counts per second,339204 Counts per second,–
"Cl.Cl.Cl.O[C@@H](COc1cccc2ncccc12)CN1CCN([C@@H]2c3ccccc3[C@@H]3[C@H](c4ccccc42)C3(F)F)CC1 [LY335979 (Zosuquidar 3HCL), Zosuquidar 3HCL]",0.6203,0.08231,0.5866,0.5866,3%,–,0.008621,0.9362,352212 Counts per second,351420 Counts per second,356783 Counts per second,"Mean relative luminescence (n=4) [4, 8]: 0.008621"
CNCC[C@H](Oc1cccc2ccccc12)c1cccs1 [Duloxetine HCl],–,–,–,–,12%,–,–,–,–,–,–,PrestoBlue relative viability ([1]; human): 0.5048; Mean relative luminescence (n=4) [2]: 0.02845; PrestoBlue relative viability ([3]; African green monkey): 0.9914; activity at 10 µM [4]: 9.8%; Reads Counts per second (read 1) [5]: 297459 Counts per second; Reads Counts per second (read 3) [5]: 293652 Counts per second; Reads Counts per second (read 4) [5]: 301826 Counts per second; Relative Recombinant NLUC [5]: 0.7894
OCCOc1ccc(/C(=C(/CCCl)c2ccccc2)c2ccccc2)cc1 [Ospemifene],–,–,–,–,4%,–,–,–,–,–,–,PrestoBlue relative viability ([1]; human): 1.203; Mean relative luminescence (n=4) [2]: 0.1449; PrestoBlue relative viability ([3]; African green monkey): 0.6863; activity at 10 µM [4]: 1.57%; Reads Counts per second (read 1) [5]: 356755 Counts per second; Reads Counts per second (read 3) [5]: 358779 Counts per second; Reads Counts per second (read 4) [5]: 352991 Counts per second; Relative Recombinant NLUC [5]: 0.9407
"COC(=O)C1=C(C)NC(C)=C(C(=O)OC(C)C)C1c1cccc2nonc12 (stereo not shown) [Isradipine (Dynacirc), Isradipine]",0.6762,0.001355,0.6155,0.6155,6%,3.92%,0.03922,0.04959,19176 Counts per second,18431 Counts per second,18561 Counts per second,–
CC[C@H](C)C(=O)O[C@H]1C[C@@H](C)C=C2C=C[C@H](C)[C@H](CC[C@@H]3C[C@@H](O)CC(=O)O3)[C@H]21 [Lovastatin],1.075,0.08758,0.5479,0.5479,9%,8.28%,0.0828,0.9319,351803 Counts per second,349914 Counts per second,353101 Counts per second,–
COCCOC(=O)C1=C(C)NC(C)=C(C(=O)OC/C=C/c2ccccc2)C1c1cccc([N+](=O)[O-])c1 (stereo not shown) [Cilnidipine],0.797,0.00182,0.8017,0.8017,0.696%,0.039%,0.0003902,0.07521,28828 Counts per second,27971 Counts per second,28106 Counts per second,–
O=C(c1ccc(OCCN2CCCCC2)cc1)c1c(-c2ccc(O)cc2)sc2cc(O)ccc12 [Raloxifene HCl],0.5413,0.03646,0.579,0.579,6%,2.63%,0.02628,0.8812,334037 Counts per second,335545 Counts per second,331016 Counts per second,–
